Experimental findings from patent US5688807A, “Method for treating 5HT2B receptor related conditions” (Eli Lilly and Company, priority 1995, dated 1997) are described below.

The structures appear in SMILES notation. Counter-ions that a name gives are not always drawn.
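Throughout, for 5-HT2B (Fundus) -log KB: isometric contraction of isolated male Wistar rat stomach fundus strips, serotonin concentration-response curves after antagonist incubation, KB from dose ratio of agonist potency versus control curve.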
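Throughout, for Kb: isometric contraction of isolated male Wistar rat stomach fundus strips, serotonin concentration-response curves after antagonist incubation, KB from dose ratio of agonist potency versus control curve.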

The target of one test is rat 5-HT2B receptor (Rattus norvegicus, UniProt P30994). In words: biochemical. The following applies: Ki Rat 5-HT2B, [3H]Serotonin; 5-HT2B cells; AVG. Type of test: binding.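 Note: displacement of [3H]5-HT from membranes of suspension cells carrying cloned rat 5-HT2B receptor, incubated 15 min at 37 °C or 2 h at 0 °C, filter-bound radioactivity counted by scintillation.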
Chain of rat 5-HT2B receptor (P30994 whole entry): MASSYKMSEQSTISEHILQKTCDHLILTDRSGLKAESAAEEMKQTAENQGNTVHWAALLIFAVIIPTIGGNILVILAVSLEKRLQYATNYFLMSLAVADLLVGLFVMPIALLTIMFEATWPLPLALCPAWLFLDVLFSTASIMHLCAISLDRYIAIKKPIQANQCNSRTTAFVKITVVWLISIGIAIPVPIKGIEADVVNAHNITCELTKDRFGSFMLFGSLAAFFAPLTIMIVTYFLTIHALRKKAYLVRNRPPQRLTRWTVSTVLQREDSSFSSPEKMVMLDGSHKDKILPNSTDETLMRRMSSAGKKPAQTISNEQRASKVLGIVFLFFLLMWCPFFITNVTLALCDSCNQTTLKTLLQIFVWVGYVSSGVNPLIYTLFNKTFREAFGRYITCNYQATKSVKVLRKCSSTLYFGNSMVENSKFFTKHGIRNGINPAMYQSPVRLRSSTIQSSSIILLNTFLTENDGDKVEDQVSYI
Turning to `NCCc1c[nH]c2cc(F)ccc12`, the Ki worked out at 40.6 nM.
The same measure, in the same setting: the figure for `Clc1ccc2[nH]c3c(c2c1)CCNC3` [drawing 166] is 70.7 nM; for `COc1ccc2[nH]c3c(c2c1)CCNC3` it is 405 nM.
In turn, `CC(N)Cc1c[nH]c2ccc(F)cc12` (stereo not drawn) had an inhibition constant Ki of 6.52 nM.
`CCN(C)CCc1c[nH]c2ccc(OCc3ccccc3)cc12` registered a Ki of 84.5 nM.
`COC(=O)c1ccc2[nH]cc(CCN)c2c1`: the Ki is 49.3 nM.
For the compound `NCCc1c[nH]c2cc(O)c(O)cc12`, the Ki turned out to be 41.6 nM.
On the same count and under the same terms, the result for `Brc1ccc2[nH]c3c(c2c1)CCNC3` [drawing 170] reads 62.1 nM; that for `NCCc1c[nH]c2c(F)ccc(F)c12`, 337 nM.
Same read-out and setting: the result for `Cc1ccc2c(CCN)c[nH]c2c1` reads 102 nM; that for `NCCc1c[nH]c2c(O)cc(O)cc12`, 4570 nM.
Turning to `CCCN(CCC)CCc1c[nH]c2ccc(OC)cc12`, the affinity, expressed as Ki, was 169 nM.
In turn, `CCC(CO)NC(=O)C1C=C2c3cccc4c3c(cn4C)CC2N(C)C1` (stereo not drawn) registered an inhibitory constant (Ki) of 6.28 nM.
The same measure, in the same setting: the figure for `NCCc1c[nH]c2c(F)cccc12` is 62.4 nM; for `c1ccc2c3c([nH]c2c1)CNCC3` it is 379 nM.
Same read-out and setting: the result for `CC(N)Cc1c[nH]c2cc(F)ccc12` (stereo not drawn) reads 49.9 nM; that for `NCCc1c[nH]c2ccc(OCc3ccccc3)cc12`, 30.2 nM.
With `NCCc1c[nH]c2c(F)cc(F)cc12`, the Ki came out at 15.4 nM.
Still for that read-out and setting: the result for `CCCN(CCC)CCc1c[nH]c2ccc(O)cc12` reads 61 nM.
Compound `CN(C)CCc1c[nH]c2ccc(OCc3ccccc3)cc12` came in with a Ki of 38.5 nM.
As to `CN1CC(C(=O)NCCc2ccccn2)CC2c3cccc4c3c(cn4C)CC21` (stereo not drawn), the Ki turned out to be 24.5 nM.
`CN1CC(C(=O)NCc2cccnc2)CC2c3cccc4[nH]cc(c34)CC21` (stereo not drawn): the Ki came to 35.1 nM.
Compound `COc1ccc2cccc(N3CCNCC3)c2c1` displayed a Ki of 3.58 nM.
For `Cc1c(Br)ccc2c(CCN)c[nH]c12`, the Ki is 20.8 nM.
The same measure, in the same setting: the figure for `Cc1cc(Br)c2[nH]cc(CCN)c2c1` is 37.6 nM; for `CCCNCCc1c[nH]c2ccc(Br)cc12` it is 131 nM; for `CN1CC(C(=O)NCc2cccnc2)CC2c3cccc4c3c(cn4C)CC21` (stereo not drawn) it is 15.5 nM.
As to `NCCc1c[nH]c2c(Br)cccc12`, the affinity, expressed as Ki, was 32 nM.
On the same count and under the same terms, the figure for `Fc1cccc2c3c([nH]c12)CNCC3` is 25.6 nM.

The test is the same for the next values; noted with them: [3H]Serotonin; 5-HT2B cells; AVG; read-out: Ki Rat 5-HT2B.
As for `CCCc1ccc2[nH]c3c(c2c1)CCNC3Cc1ccc(OC)c(OC)c1` (stereo not drawn), the Ki turned out to be 28.4 nM.
Take `Cc1[nH]c2ccc(O)cc2c1CCN`: the inhibition constant (Ki) is 284 nM.
In the case of `CCCCC(=O)c1cccc2c1CC(NC)CC2` (stereo not drawn), the Ki amounted to 5150 nM.
Take `COc1ccc(CC2NCCc3c2[nH]c2c(Br)c(C)ccc32)c(OC)c1OC` (stereo not drawn): the Ki was determined as 8.77 nM.
Turning to `CC(O)C(C)OC(=O)C1CC2c3cccc4c3c(cn4C(C)C)CC2N(C)C1` (stereo not drawn), the inhibition constant Ki came out at 6.87 nM.
With `Fc1ccc2[nH]c3c(c2c1)CCNC3`, the inhibition constant (Ki) came to 322 nM.
Consider `c1ccc(COc2cccc3c4c([nH]c23)CNCC4)cc1`, for which the Ki was 5650 nM.
On the same count and under the same terms, the result for `CC(C)c1ccc2[nH]c3c(c2c1)CCNC3C(C)c1cccc2ccccc12` (stereo not drawn) reads 14.2 nM; that for `Cc1ccc2c3c([nH]c2c1)CNCC3`, 78.5 nM; that for `NCCc1c[nH]c2c1ccc1ccccc12`, 155 nM.
Still for that read-out and setting: the figure for `COc1cc(CC2NCCc3c2[nH]c2ccc(C)cc32)cc(I)c1OC` (stereo not drawn) [drawing 153] is 4.82 nM.
On the same count and under the same terms, the figure for `Cc1cccc2c3c([nH]c12)CNCC3` is 60.1 nM.
With `CC(C)n1cc(CCN)c2cc(Br)ccc21`, the Ki was determined as 475 nM.
Regarding `NCCc1c[nH]c2ccc(Cl)cc12`, the Ki was 6.21 nM.
The same measure, in the same setting: the figure for `NCCc1c[nH]c2ccc(F)cc12` is 5.65 nM; for `NCCc1c[nH]c2ccccc12` it is 113 nM.
Consider `Cc1ccc2[nH]cc(CCN)c2c1`, for which the Ki was determined as 32.8 nM.
`CCCC(=O)c1cccc2c1CC(NC)CC2` (stereo not drawn): the Ki stood at 1500 nM.
For `Cc1ccc2[nH]c3c(c2c1F)CCNC3Cc1cccc2ccccc12` (stereo not drawn), the Ki amounted to 4.38 nM.
As to `CCCN(CCC)C1CCc2cccc(O)c2C1` (stereo not drawn), the inhibitory constant (Ki) was 4120 nM.
Still for that read-out and setting: the figure for `CC(C)(C)c1ccc2[nH]c3c(c2c1)CCNC3Cc1cccc2ccccc12` (stereo not drawn) is 44.9 nM.
On the same count and under the same terms, the figure for `COc1ccc(C(C)(C)C2NCCc3c2[nH]c2ccccc32)cc1OC` (stereo not drawn) is 220 nM; for `COc1ccc(CC2NCCc3c2[nH]c2ccc(C4CCCCC4)cc32)cc1OC` (stereo not drawn) [drawing 149] it is 1460 nM.
The same measure, in the same setting: the figure for `CN(C)C1CCc2cccc(C(=O)c3ccccc3)c2C1` (stereo not drawn) is 1750 nM.
`CN(C)C1CCc2cccc(C(=O)c3ccccc3F)c2C1` (stereo not drawn): the Ki was determined as 3020 nM.
As for `CCCC(=O)c1cccc2c1CC(N(C)C)CC2` (stereo not drawn), the Ki was 862 nM.
For the compound `COc1ccc(CC2NCCc3c2[nH]c2ccc(C(C)(C)C)cc32)cc1OC` (stereo not drawn) [drawing 148], the Ki is 39.7 nM.
For `CCCCC(=O)c1cccc2c1CC(N(C)C)CC2` (stereo not drawn), the Ki amounted to 936 nM.
Take `COc1ccc(CC2NCCc3c2[nH]c2ccc(-c4ccccc4)cc32)cc1OC` (stereo not drawn): the Ki was 229 nM.
Regarding `Cc1c(Br)ccc2c3c([nH]c12)CNCC3`, the Ki came out at 32.4 nM.
As to `CC(O)C(C)OC(=O)C1CC2c3cccc4[nH]cc(c34)CC2N(C)C1` (stereo not drawn), the Ki amounted to 12.2 nM.

Still in this test, the particulars now being: read-out: Ki Rat 5-HT2B; [3H]Serotonin; 5-HT2B cells; AVG.
Turning to `NCc1c[nH]c2ccc(Br)cc12`, the Ki came out at 39.3 nM.

The next test deals with 5-HT2B receptor (rat stomach fundus) (Rattus norvegicus, UniProt P30994).
Chain of 5-HT2B receptor (rat stomach fundus) (P30994 whole entry): as above
Experiment: not given
Settings: not given
On to `COc1ccc(CC2NCCc3c2[nH]c2c(C)c(C)ccc32)cc1OC` (stereo not drawn) [Example 19, 7,8-dimethyl-1,2,3,4-tetrahydro-1-[(3,4-dimethoxyphenyl)methyl]-9H-pyrido[3,4b]indole hydrochloride], for which the Kb is 0.0759 nM.

The test is the same for the next values; noted with them: rat stomach fundus; vs serotonin; ± standard error; read-out: 5-HT2B (Fundus) -log KB (converted).
Take `Cc1ccc2[nH]c3c(c2c1F)CCNC3Cc1cccc2ccccc12` (racemic) [Example 59, (+/-) 5-fluoro-6-methyl-1-(1-naphthalenylmethyl)-1,2,3,4-tetrahydro-9H-pyrido [3,4-b] indole (Z)-2-butenedioate]: the Kb is 0.204 nM.
`Cc1ccc2c(c1)c1c(n2C)C(Cc2cccc3ccccc23)NCC1` (racemic) [Example 63, (+/-) 6,9-dimethyl-1,2,3,4-tetrahydro-1-(1-naphthalenylmethyl)-9H-pyrido [3,4-b] indole hydrochloride]: the Kb was 0.813 nM.
In the case of `COc1ccc(C(C)C2NCCc3c2[nH]c2ccc(C)cc32)cc1OC` (racemic) [Example 40], the Kb is 0.178 nM.
Still for that read-out and setting: the result for `COc1ccc(CC2NCCc3c2[nH]c2c(C)cccc32)cc1OC` (stereo not drawn) [Example 1, 8-methyl-1-[(3,4-dimethoxyphenyl)methyl]-1,2,3,4-tetrahydro-9H-pyrido[3,4-b]indole] reads 1 nM; that for `COc1ccc(CC2NCCc3c2[nH]c2ccc(C)cc32)cc1F` (stereo not drawn) [Example 34, 6-methyl-1-[(3-fluoro-4-methoxyphenyl)-methyl]-1,2,3,4-tetrahydro-9H-pyrido[3,4-b]indole hydrochloride], 0.38 nM.
Take `COc1ccc(CC2NCCc3c2[nH]c2c(Br)cc(Br)cc32)cc1OC` (stereo not drawn) [Example 3, 6,8-dibromo-1-[(3,4-dimethoxyphenyl)methyl]-1,2,3,4-tetrahydro-9H-pyrido[3,4-b]indole]: the Kb is 1.66 nM.

Staying with this test, now noted: read-out: 5-HT2B (Fundus) -log KB (converted).
On to `Cc1ccc2[nH]c3c(c2c1)CCNC3Cc1ccc(C)c(C)c1` (stereo not drawn) [Example 35, 6-methyl-1-[(3,4-dimethylphenyl)methyl]-1,2,3,4-tetrahydro-9H-pyrido[3,4-b]indole hydrochloride], for which the Kb was roughly 0.871 nM.

As usually defined, the Ki is the equilibrium dissociation constant of an inhibitor or competing ligand from its target.
